Experimental findings from ChEMBL document CHEMBL1126102, “2-(N'-aralkylidenehydrazino)adenosines: potent and selective coronary vasodilators” (J Med Chem, 1992) are described below.

For assay [1], the target named is T1, Adenosine receptor A1 (Cavia porcellus, UniProt P47745).
T1 sequence (P47745 whole entry): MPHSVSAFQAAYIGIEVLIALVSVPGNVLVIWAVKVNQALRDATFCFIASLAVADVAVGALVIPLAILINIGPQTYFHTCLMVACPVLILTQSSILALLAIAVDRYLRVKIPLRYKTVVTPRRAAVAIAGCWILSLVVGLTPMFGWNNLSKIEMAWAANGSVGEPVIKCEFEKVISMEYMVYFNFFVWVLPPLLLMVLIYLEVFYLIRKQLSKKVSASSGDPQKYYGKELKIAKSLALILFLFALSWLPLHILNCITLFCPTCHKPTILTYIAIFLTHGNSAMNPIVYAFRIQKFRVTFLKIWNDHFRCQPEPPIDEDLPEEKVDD
Nature of the assay: Tested for adenosine A1 receptor agonistic activity by determining concentration needed to prolong the stimulus-QRS interval by 50% of the maximum response. It is filed as functional.

Assay [2] deals with Adenosine A2 receptor. Nature of the assay: Tested for adenosine A2 receptor agonistic activity by determining coronary vasodilation. The format is functional, Cavia porcellus.

The term EC50 denotes the concentration at which the effect is half-maximal. Turning to `Cc1cccc(/C=N/Nc2nc(N)c3ncn(C4O[C@H](CO)[C@@H](O)[C@H]4O)c3n2)c1` (stereo not given in full), in assay [1], the EC50 is 17 µM. Also, in assay [2], the “-Log EC50” value is on record as 8.36.
The molecule `Nc1nc(N/N=C/Cc2ccccc2)nc2c1ncn2C1O[C@H](CO)[C@@H](O)[C@H]1O` (stereo not given in full) showed an EC50 in assay [1] of 83.2 µM. Also, the “-Log EC50” value in assay [2] worked out at 8.04.
Taken in the same sequence, the figures for `Nc1nc(N/N=C/c2ccc3ccccc3c2)nc2c1ncn2C1O[C@H](CO)[C@@H](O)[C@H]1O` (stereo not given in full) were 2.63 µM and 8.38.
`Nc1nc(N/N=C/c2ccccc2)nc2c1ncn2C1O[C@H](CO)[C@@H](O)[C@H]1O` (stereo not given in full) gave an EC50 in assay [1] of 83.2 µM. Further, the “-Log EC50” value in assay [2] is 8.64.
In assay [1], `C/C(=N\Nc1nc(N)c2ncn(C3O[C@H](CO)[C@@H](O)[C@H]3O)c2n1)c1ccc(F)cc1` (stereo not given in full) showed an EC50 of 4.17 µM. Also, the “-Log EC50” value in assay [2] is 8.49.
Regarding `Nc1nc(N/N=C/CCc2ccccc2)nc2c1ncn2C1O[C@H](CO)[C@@H](O)[C@H]1O` (stereo not given in full), it took 66.1 µM to reach a half-maximal effect in assay [1] (EC50).
`Nc1nc(N/N=C/c2cccc(Cl)c2)nc2c1ncn2C1O[C@H](CO)[C@@H](O)[C@H]1O` (stereo not given in full) had an EC50 in assay [1] of 49 µM. The “-Log EC50” value in assay [2] amounted to 8.34.
Taken in the same sequence, the figures for `Nc1nc(N/N=C/c2cccc(F)c2)nc2c1ncn2C1O[C@H](CO)[C@@H](O)[C@H]1O` (stereo not given in full) were 9.12 µM and 8.47.
The molecule `Nc1nc(N/N=C/c2ccccc2F)nc2c1ncn2C1O[C@H](CO)[C@@H](O)[C@H]1O` (stereo not given in full) gave an EC50 in assay [1] of 41.7 µM. For the same molecule, the “-Log EC50” value in assay [2] is recorded as 8.43.
`Nc1nc(N/N=C/c2cccc3ccccc23)nc2c1ncn2C1O[C@H](CO)[C@@H](O)[C@H]1O` (stereo not given in full): the EC50 in assay [1] was 0.832 µM. Moreover, in assay [2], the “-Log EC50” value is reported as 8.02.
With `Nc1nc(N/N=C/c2cccs2)nc2c1ncn2C1O[C@H](CO)[C@@H](O)[C@H]1O` (stereo not given in full), the EC50 in assay [1] is 41.7 µM. Further, the “-Log EC50” value in assay [2] is on record as 7.86.
For `Nc1nc(N/N=C/c2ccc(CCC(=O)O)cc2)nc2c1ncn2C1O[C@H](CO)[C@@H](O)[C@H]1O` (stereo not given in full), in assay [1], the EC50 was 30.9 µM. In assay [2], the “-Log EC50” value is recorded as 8.18.
Taken in the same sequence, the figures for `C/C(=N\Nc1nc(N)c2ncn(C3O[C@H](CO)[C@@H](O)[C@H]3O)c2n1)c1cccs1` (stereo not given in full) were 8.91 µM and 7.55.
Turning to `Nc1nc(N/N=C/c2ccsc2)nc2c1ncn2C1O[C@H](CO)[C@@H](O)[C@H]1O` (stereo not given in full), the EC50 in assay [1] is 60.3 µM. In assay [2], the “-Log EC50” value is on record as 7.81.
For the molecule `Nc1nc(N/N=C/c2ccc(F)cc2)nc2c1ncn2C1O[C@H](CO)[C@@H](O)[C@H]1O` (stereo not given in full), in assay [1], it took 12.6 µM to reach a half-maximal effect (EC50). For the same molecule, the “-Log EC50” value in assay [2] is given as 8.61.
In the case of `COc1ccccc1/C=N/Nc1nc(N)c2ncn(C3O[C@H](CO)[C@@H](O)[C@H]3O)c2n1` (stereo not given in full), a half-maximal response in assay [1] (EC50) required 12.3 µM. Also, the “-Log EC50” value in assay [2] is reported as 6.86.
Taken in the same sequence, the figures for `Nc1nc(N/N=C/c2cc(Br)cs2)nc2c1ncn2C1O[C@H](CO)[C@@H](O)[C@H]1O` (stereo not given in full) were 57.5 µM and 8.28.
Turning to `CC(C)(C)OC(=O)CCc1ccc(CCNc2nc(N)c3ncn(C4O[C@H](CO)[C@@H](O)[C@H]4O)c3n2)cc1` (stereo not given in full), the EC50 in assay [1] is 19.1 µM. In addition, the “-Log EC50” value in assay [2] is 8.28.
In turn, `Cc1ccccc1/C=N/Nc1nc(N)c2ncn(C3O[C@H](CO)[C@@H](O)[C@H]3O)c2n1` (stereo not given in full) gave an EC50 in assay [1] of 43.7 µM. In assay [2], the “-Log EC50” value is 7.92.
In turn, `CC(C)(C)OC(=O)CCc1ccc(/C=N/Nc2nc(N)c3ncn(C4O[C@H](CO)[C@@H](O)[C@H]4O)c3n2)cc1` (stereo not given in full) had an EC50 in assay [1] of 12 µM. For the same molecule, the “-Log EC50” value in assay [2] turned out to be 8.52.
Regarding `Nc1nc(N/N=C/c2cccnc2)nc2c1ncn2C1O[C@H](CO)[C@@H](O)[C@H]1O` (stereo not given in full), the EC50 in assay [1] was 32.4 µM. The “-Log EC50” value in assay [2] is reported as 7.83.
`Nc1nc(N/N=C/c2ccccc2Cl)nc2c1ncn2C1O[C@H](CO)[C@@H](O)[C@H]1O` (stereo not given in full) had an EC50 in assay [1] of 49 µM. Moreover, the “-Log EC50” value in assay [2] came to 8.12.
`Nc1nc(NCCc2ccc(CCC(=O)O)cc2)nc2c1ncn2C1O[C@H](CO)[C@@H](O)[C@H]1O` (stereo not given in full) had an EC50 in assay [1] of 112 µM. Further, the “-Log EC50” value in assay [2] was 7.95.
As for `Cc1ccc(/C=N/Nc2nc(N)c3ncn(C4O[C@H](CO)[C@@H](O)[C@H]4O)c3n2)cc1` (stereo not given in full), a half-maximal effect in assay [1] (EC50) was put at 39.8 µM.
Regarding `NNc1nc(N)c2ncn(C3O[C@H](CO)[C@@H](O)[C@H]3O)c2n1` (stereo not given in full), the “-Log EC50” value in assay [2] is listed as 7.1.
On to `COc1cccc(/C=N/Nc2nc(N)c3ncn(C4O[C@H](CO)[C@@H](O)[C@H]4O)c3n2)c1` (stereo not given in full), for which the EC50 in assay [1] was 19.5 µM. Also, the “-Log EC50” value in assay [2] amounted to 7.91.
`C/C(=N\Nc1nc(N)c2ncn(C3O[C@H](CO)[C@@H](O)[C@H]3O)c2n1)c1ccccc1` (stereo not given in full) showed an EC50 in assay [1] of 3.02 µM. For the same molecule, in assay [2], the “-Log EC50” value was 7.9.
In assay [1], `Nc1nc(N/N=C/c2ccccn2)nc2c1ncn2C1O[C@H](CO)[C@@H](O)[C@H]1O` (stereo not given in full) had an EC50 of 41.7 µM. In assay [2], the “-Log EC50” value is listed as 8.24.
In assay [1], `Nc1nc(N/N=C/c2ccncc2)nc2c1ncn2C1O[C@H](CO)[C@@H](O)[C@H]1O` (stereo not given in full) had an EC50 of 26.3 µM. Moreover, in assay [2], the “-Log EC50” value was determined as 7.96.
